Assay results as given in patent US20070225364A1, “Use of bismuth subgallate and borneol in treating melanoma” (HEDONIST BIOCHEMICAL TECHNOLOGIES CO., LTD., priority 2006, published 2007).
Several values for one entry are separate records, joined by “and”; a condition that tells them apart may be missing. Equal entries are not always repeated.

Legend:
[1] = system: normal human keratinocyte (HaCaT) cells; experiment: Cytotoxicity assay (MTT relative viability), HaCaT cells; format: cell-based; conditions: BSG and BO applied together, 72 hours, FIG. 2
Description: (§1) A375 human melanoma cells (obtained from Food Industry Research and Development Institute, Hsinchu, Taiwan, R.O.C. under accession number CCRC 60039) and normal human keratinocyte (HaCaT) cells (obtained from Dr. Lin P., Institute of Medical & Molecular Toxicology, Chung Shan Medical University, Taichung, Taiwan) were used for the test.
(§2) A375 and HaCaT cells were incubated in 96-well plates (Corning Incorporated COSTAR® 3599) at a density of 3×10^3 cells/well and 5×10^3 cells/well, respectively. After 24 hours, the cells were treated with various concentrations of bismuth subgallate (BSG) and borneol (BO) for 72 hours. The cytotoxicity effect of BSG and BO was estimated by the relative viability (%) of the cells, which was determined by measuring the reduction of tetrazolium salt MTT using a Microplate reader (Thermo Lab systems Multishkan Spectrum) at a test wavelength of 550 nm and a reference wavelength of 690 nm. The relative viability is calculated by the following equation: Relative Viability(%)=ODtestODcontrol×100 The results are represented by the means plus standard errors (Mean±SE) of five repetitions.

[2] = system: A375 human melanoma cells; experiment: Cytotoxicity assay (MTT relative viability), A375 cells; format: cell-based; conditions: BSG and BO applied together, 72 hours, FIGS. 1A and 1B
Description: as §1, §2

Molecule | concentrations at which cytotoxicity effect on HaCaT cells is observed (only at high concentrations) [1] | lowest concentration at which reduction of relative viability of A375 cells is observed [2]
bismuth subgallate [BSG] | 140 µg/mL and 280 µg/mL | 17.5 µg/mL
CC1(C)C2CCC1(C)C(O)C2 (stereo not drawn) [BO, borneol] | – | 2.5 µg/mL
